Test results: patent US20090118276A1, “THIENOPYRIMIDINES, THIENOPYRIDINES, AND PYRROLOPYRIMIDINES AS B-RAF INHIBITORS” (priority 2007, published 2009)

What follows are compounds tested against T1, Flag/GST-tagged recombinant human B-Raf (Homo sapiens, UniProt P15056) (assay: B-Raf Kinase to MEK1 ELISA). Settings: not given.
T1 construct: Flag; GST; made in house; host or cells: Sf9 insect cells (B-Raf); E. coli (MEK1-GST)
T1 sequence (P15056 whole entry): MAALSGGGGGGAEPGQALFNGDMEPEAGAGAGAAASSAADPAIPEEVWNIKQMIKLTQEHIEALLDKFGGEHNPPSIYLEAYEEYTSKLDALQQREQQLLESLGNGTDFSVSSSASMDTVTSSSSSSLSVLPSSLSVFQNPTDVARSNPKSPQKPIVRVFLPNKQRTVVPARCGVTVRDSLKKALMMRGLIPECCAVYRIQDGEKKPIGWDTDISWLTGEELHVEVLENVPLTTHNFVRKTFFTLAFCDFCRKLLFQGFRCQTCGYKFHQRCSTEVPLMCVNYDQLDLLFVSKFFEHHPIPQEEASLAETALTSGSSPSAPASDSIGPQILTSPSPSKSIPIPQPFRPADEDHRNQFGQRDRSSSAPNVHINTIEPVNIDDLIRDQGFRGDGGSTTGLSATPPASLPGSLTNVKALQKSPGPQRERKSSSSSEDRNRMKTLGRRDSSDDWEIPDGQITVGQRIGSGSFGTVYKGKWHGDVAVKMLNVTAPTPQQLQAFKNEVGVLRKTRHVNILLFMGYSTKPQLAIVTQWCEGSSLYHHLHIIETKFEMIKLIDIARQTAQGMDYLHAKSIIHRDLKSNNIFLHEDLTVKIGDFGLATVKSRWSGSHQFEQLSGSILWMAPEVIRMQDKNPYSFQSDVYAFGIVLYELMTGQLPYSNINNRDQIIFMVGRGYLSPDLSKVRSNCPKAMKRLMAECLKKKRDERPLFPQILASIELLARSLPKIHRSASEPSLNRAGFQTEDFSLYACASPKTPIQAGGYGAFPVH
Type: biochemical
Procedure: B-Raf Kinase to MEK1 ELISA
B-Raf1 Kinase Assay Procedure: B-Raf-1 is used to phosphorylate GST-MEK1.
B-Raf Assay Stock Solutions:
1. Assay Dilution Buffer (ADB): 20 mM MOPS, pH 7.2, 25 mM β-glycerol phosphate, 5 mM EGTA, 1 mM sodium orthovanadate, 1 mM dithiothreitol, 0.01% Triton X-100.
2. Magnesium/ATP Cocktail: ADB solution (minus Triton X-100) plus 200 μM cold ATP and 40 mM magnesium chloride.
4. Active Kinase: Active B-Raf: used at 0.2 nM per assay point.
8. Anti pMEK Ab (Upstate)
9. Anti-rabbit Ab/Europium conjugate (Wallac)
1. Add 25 μl of ADB containing B-Raf and Mek per assay (i.e. per well of a 96 well plate)
2. Add 25 μl of 0.2 mM ATP and 40 mM magnesium chloride in Magnesium/ATP Cocktail.
3. Incubate for 45 minutes at RT with occasional shaking.
4. Transfer this mixture to an anti-GST Ab coated 96 well plate (Nunc Immunosorb plates coated o/n with a-GST. Plate freshly washed 3× with TBS-T before use.
5. Incubate o/n at 30° C. in cold room.
6. Wash 3× with TBST, add Anti-Phospho MEK1 (1:1000, dilution depends upon lot)
7. Incubate for 60 minutes at RT in a shaking incubator
8. Wash 3× with TBST, add Anti-rabbit Ab/Europium conjugate (Wallac) (1:500, dilution depends upon lot)
9. Incubate for 60 minutes at RT on a platform shaker.
10. Wash plate 3× with TBS-T
11. Add 100 μl of Wallac Delfia Enhancement Solution and shake for 10 minutes.
12. Read plates in Wallac Victor model Plate Reader.
13. Collect data analyze in Excel for single point and IC50 determinations.
The % inhibition was determined for each compound concentration.
For `O=C(Nc1cccc(-c2ncnc3cc(-c4ccncc4)sc23)c1)c1cccc(C(F)(F)F)c1` [Compound 6, N-[3-(6-pyridin-4-ylthieno[3,2-d]pyrimidin-4-yl)phenyl]-3-(trifluoromethyl)benzamide], the IC50 was 540 nM. Compound `COc1ccc(C(=O)Nc2cccc(-c3c(C#N)cnc4cc(-c5ccncc5)sc34)c2)cc1C(F)(F)F` [Compound 7, N-[3-(6-cyano-2-pyridin-4-ylthieno[3,2-b]pyridin-7-yl)phenyl]-4-methoxy-3-(trifluoromethyl)benzamide] has an IC50 of 9600 nM. `COc1ccc(C(=O)Nc2cccc(-c3ncnc4sc(-c5ccncc5)cc34)c2)cc1C(F)(F)F` [Compound 35, 4-methoxy-N-[3-(6-pyridin-4-ylthieno[2,3-d]pyrimidin-4-yl)phenyl]-3-(trifluoromethyl)benzamide] was tested, and the IC50 was 3460 nM. With `O=C(Nc1cccc(-c2ncnc3sc(-c4ccncc4)cc23)c1)Nc1ccc(F)c(C(F)(F)F)c1` [Compound 36, N-[4-fluoro-3-(trifluoromethyl)phenyl]-N′-[3-(6-pyridin-4-ylthieno[2,3-d]pyrimidin-4-yl)phenyl]urea] the IC50 was 2340 nM. `Cc1ccc(C(=O)Nc2cccc(-c3ncnc4sc(-c5ccncc5)cc34)c2)cc1C(F)(F)F` [Compound 37, 4-methyl-N-[3-(6-pyridin-4-ylthieno[2,3-d]pyrimidin-4-yl)phenyl]-3-(trifluoromethyl)benzamide] gave an IC50 of 2610 nM. For `O=C(Nc1cccc(-c2ncnc3sc(-c4ccncc4)cc23)c1)c1ccc(F)c(C(F)(F)F)c1` [Compound 38, 4-fluoro-N-[3-(6-pyridin-4-ylthieno[2,3-d]pyrimidin-4-yl)phenyl]-3-(trifluoromethyl)benzamide], the IC50 was 300 nM. Compound `O=C(Nc1cccc(-c2ncnc3sc(-c4ccncc4)cc23)c1)Nc1ccc(Cl)c(C(F)(F)F)c1` [Compound 39, N-[4-chloro-3-(trifluoromethyl)phenyl]-N′-[3-(6-pyridin-4-ylthieno[2,3-d]pyrimidin-4-yl)phenyl]urea] has an IC50 of 1400 nM. In the case of `O=C(Nc1cccc(-c2ncnc3sc(-c4ccncc4)cc23)c1)c1ccc(Cl)c(C(F)(F)F)c1` [Compound 40, 4-chloro-N-[3-(6-pyridin-4-ylthieno[2,3-d]pyrimidin-4-yl)phenyl]-3-(trifluoromethyl)benzamide], the IC50 is reported as 3530 nM. In the case of `O=C(Nc1cccc(-c2ncnc3sc(-c4ccncc4)cc23)c1)Nc1cccc(C(F)(F)F)c1` [Compound 41, N-[3-(6-pyridin-4-ylthieno[2,3-d]pyrimidin-4-yl)phenyl]-N′-[3-(trifluoromethyl)phenyl]urea], the IC50 is reported as 1790 nM. `O=C(Nc1cccc(-c2ncnc3sc(-c4ccncc4)cc23)c1)c1cccc(C(F)(F)F)c1` [Compound 42, N-[3-(6-pyridin-4-ylthieno[2,3-d]pyrimidin-4-yl)phenyl]-3-(trifluoromethyl)benzamide] gave an IC50 of 80 nM. `Cc1ccc(NC(=O)Nc2cccc(-c3ncnc4sc(-c5ccncc5)cc34)c2)cc1C` [Compound 44, N-(3,4-dimethylphenyl)-N′-[3-(6-pyridin-4-ylthieno[2,3-d]pyrimidin-4-yl)phenyl]urea] gave an IC50 of 1530 nM. With `O=C(Nc1cccc(Cl)c1)Nc1cccc(-c2ncnc3sc(-c4ccncc4)cc23)c1` [Compound 45, N-(3-chlorophenyl)-N′-[3-(6-pyridin-4-ylthieno[2,3-d]pyrimidin-4-yl)phenyl]urea] the IC50 was 8750 nM. `O=C(Nc1ccc(Cl)cc1)Nc1cccc(-c2ncnc3sc(-c4ccncc4)cc23)c1` [Compound 46, N-(4-chlorophenyl)-N′-[3-(6-pyridin-4-ylthieno[2,3-d]pyrimidin-4-yl)phenyl]urea] gave an IC50 of 1230 nM. In the case of `O=C(Nc1cccc(-c2ncnc3sc(-c4ccnc(NCCN5CCOCC5)c4)cc23)c1)c1cccc(C(F)(F)F)c1` [Compound 86, N-[3-(6-{2-[(2-morpholin-4-ylethyl)amino]pyridin-4-yl}thieno[2,3-d]pyrimidin-4-yl)phenyl]-3-(trifluoromethyl)benzamide], the IC50 is reported as 144 nM. With `N#Cc1ccccc1Cn1ccc2c(-c3cccc(NC(=O)c4cccc(C(F)(F)F)c4)c3)ncnc21` [Compound 94, N-{3-[7-(2-cyanobenzyl)-7H-pyrrolo[2,3-d]pyrimidin-4-yl]phenyl}-3-(trifluoromethyl)benzamide] the IC50 was 2470 nM. In the case of `O=C(Nc1cccc(-c2ncnc3c2ccn3Cc2ccncc2)c1)c1cccc(C(F)(F)F)c1` [Compound 98, N-{3-[7-(pyridin-4-ylmethyl)-7H-pyrrolo[2,3-d]pyrimidin-4-yl]phenyl}-3-(trifluoromethyl)benzamide], the IC50 is reported as 1020 nM. Compound `COc1ccc(-n2ccc3c(-c4cccc(NC(=O)c5cccc(C(F)(F)F)c5)c4)ncnc32)cc1` [Compound 103, N-{3-[7-(4-methoxyphenyl)-7H-pyrrolo[2,3-d]pyrimidin-4-yl]phenyl}-3-(trifluoromethyl)benzamide] has an IC50 of 5710 nM.

Same assay, conditions: phosphorylation of GST-MEK1 by B-Raf (0.2 nM), phospho-MEK1 antibody/Europium readout; compound concentrations from 1 μM to 3 nM or 0.1 μM to 300 pm in half log dilutions; read-out: IC50
In the case of `N#Cc1cnc2cc(-c3ccncc3)sc2c1-c1cccc(NC(=O)c2cccc(C(F)(F)F)c2)c1` [Compound 5, N-[3-(6-cyano-2-pyridin-4-ylthieno[3,2-b]pyridin-7-yl)phenyl]-3-(trifluoromethyl)benzamide], the IC50 is reported as 5940 nM. Compound `O=C(Nc1cccc(-c2ncnc3sc(C4=CCNCC4)cc23)c1)c1cccc(C(F)(F)F)c1` [Compound 67, N-{3-[6-(1,2,3,6-tetrahydropyridin-4-yl)thieno[2,3-d]pyrimidin-4-yl]phenyl}-3-(trifluoromethyl)benzamide] has an IC50 of 2500 nM. `CC(=O)Nc1ccc(-c2cc3c(-c4cccc(NC(=O)c5cccc(C(F)(F)F)c5)c4)ncnc3s2)cc1` [Compound 68, N-(3-{6-[4-(acetylamino)phenyl]thieno[2,3-d]pyrimidin-4-yl}phenyl)-3-(trifluoromethyl)benzamide] was tested, and the IC50 was 872 nM. `CC(=O)Nc1cccc(-c2cc3c(-c4cccc(NC(=O)c5cccc(C(F)(F)F)c5)c4)ncnc3s2)c1` [Compound 72, N-(3-{6-[3-(acetylamino)phenyl]thieno[2,3-d]pyrimidin-4-yl}phenyl)-3-(trifluoromethyl)benzamide] gave an IC50 of 2070 nM. `O=C(Nc1cccc(-c2ncnc3sc(-c4cccnc4)cc23)c1)c1cccc(C(F)(F)F)c1` [Compound 75, N-[3-(6-pyridin-3-ylthieno[2,3-d]pyrimidin-4-yl)phenyl]-3-(trifluoromethyl)benzamide] was tested, and the IC50 was 1110 nM. `N#Cc1ccc(-c2cc3c(-c4cccc(NC(=O)c5cccc(C(F)(F)F)c5)c4)ncnc3s2)cc1` [Compound 77, N-{3-[6-(4-cyanophenyl)thieno[2,3-d]pyrimidin-4-yl]phenyl}-3-(trifluoromethyl)benzamide] showed an IC50 of 1230 nM. In the case of `O=C(Nc1cccc(-c2ncnc3sc(-c4ccc(Cl)cc4)cc23)c1)c1cccc(C(F)(F)F)c1` [Compound 79, N-{3-[6-(4-chlorophenyl)thieno[2,3-d]pyrimidin-4-yl]phenyl}-3-(trifluoromethyl)benzamide], the IC50 is reported as 4670 nM. For `CC(=O)c1ccc(-c2cc3c(-c4cccc(NC(=O)c5cccc(C(F)(F)F)c5)c4)ncnc3s2)cc1` [Compound 80, N-{3-[6-(4-acetylphenyl)thieno[2,3-d]pyrimidin-4-yl]phenyl}-3-(trifluoromethyl)benzamide], the IC50 was 2730 nM. `CC(=O)c1cccc(-c2cc3c(-c4cccc(NC(=O)c5cccc(C(F)(F)F)c5)c4)ncnc3s2)c1` [Compound 81, N-{3-[6-(3-acetylphenyl)thieno[2,3-d]pyrimidin-4-yl]phenyl}-3-(trifluoromethyl)benzamide] was tested, and the IC50 was 3200 nM. Work on `CNC(=O)c1cc(-c2cc3c(-c4cccc(NC(=O)c5cccc(C(F)(F)F)c5)c4)ncnc3s2)ccn1` [Compound 85, N-methyl-4-[4-(3-{[3-(trifluoromethyl)benzoyl]amino}phenyl)thieno[2,3-d]pyrimidin-6-yl]pyridine-2-carboxamide] yielded an IC50 of 730 nM. `O=C(Nc1cccc(-c2ncnc3sc(-c4ccnc(NCCCn5ccnc5)c4)cc23)c1)c1cccc(C(F)(F)F)c1` [Compound 87, N-{3-[6-(2-{[3-(1H-imidazol-1-yl)propyl]amino}pyridin-4-yl)thieno[2,3-d]pyrimidin-4-yl]phenyl}-3-(trifluoromethyl)benzamide] was tested, and the IC50 was 158 nM. With `N#Cc1cc2c(-c3cccc(NC(=O)c4cccc(C(F)(F)F)c4)c3)ncnc2s1` [Compound 88, N-[3-(6-cyanothieno[2,3-d]pyrimidin-4-yl)phenyl]-3-(trifluoromethyl)benzamide] the IC50 was 5980 nM. `NC(=O)c1cc2c(-c3cccc(NC(=O)c4cccc(C(F)(F)F)c4)c3)ncnc2s1` [Compound 89, 4-(3-{[3-(trifluoromethyl)benzoyl]amino}phenyl)thieno[2,3-d]pyrimidine-6-carboxamide] was tested, and the IC50 was 2720 nM. `O=C(Nc1cccc(-c2ncnc3[nH]c(-c4ccncc4)cc23)c1)c1cccc(C(F)(F)F)c1` [Compound 101, N-[3-(6-pyridin-4-yl-7H-pyrrolo[2,3-d]pyrimidin-4-yl)phenyl]-3-(trifluoromethyl)benzamide] was tested, and the IC50 was 34.5 nM.
